How the values were obtained:
pigweed, palmer [1] = assay: Test C preemergence; type: in vivo, Amaranthus palmeri; conditions: 0 to 100 scale (0 no effect, 100 complete control)
Outline: (§1)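 Seeds sown in loam soil–sand blend received a directed preemergence soil spray of test chemical in non-phytotoxic solvent with surfactant; postemergence plants (2–10 cm, one- to two-leaf stage) were sprayed with the same formulation. Greenhouse-held 10 days, then visually rated for injury versus untreated controls, 0 (no effect) to 100 (complete control).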

galium = assay: Test C postemergence; type: in vivo, Galium aparine; conditions: 10 days
Outline: as §1

oat, wild [2] = assay: Test C postemergence; type: in vivo, Avena fatua; conditions: 10 days
Outline: as §1

barnyardgrass [3] = assay: Test C postemergence; type: in vivo, Echinochloa crusgalli; conditions: 10 days
Outline: as §1

oat, wild [4] = assay: Test C preemergence; type: in vivo, Avena fatua; conditions: 0 to 100 scale (0 no effect, 100 complete control)
Outline: as §1

green foxtail [5] = assay: Test C postemergence; type: in vivo, Setaria viridis; conditions: 10 days
Outline: as §1

sedge, umbrella = assay: Test D flooded paddy test; type: in vivo, Cyperus difformis; conditions: 250 g ai/ha, applied to paddy water, visual rating after 13 to 14 days, scale 0 to 100 (0 no effect, 100 complete control)
Outline: (§2)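 At the 2-leaf stage, floodwater 3 cm deep received the test compound; that depth persisted throughout. Plants scored visually 13 to 14 days on, 0 (no effect) to 100 (complete control), dash indicating no result.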

green foxtail [6] = assay: Test C preemergence; type: in vivo, Setaria viridis; conditions: 0 to 100 scale (0 no effect, 100 complete control)
Outline: as §1

wheat [7] = assay: Test C preemergence; type: in vivo, Triticum aestivum; conditions: 0 to 100 scale (0 no effect, 100 complete control)
Outline: as §1

pigweed, palmer [8] = assay: Test C postemergence; type: in vivo, Amaranthus palmeri; conditions: 10 days
Outline: as §1

wheat [9] = assay: Test C postemergence; type: in vivo, Triticum aestivum; conditions: 10 days
Outline: as §1

ryegrass, Italian [10] = assay: Test C postemergence; type: in vivo, Lolium multiflorum; conditions: 10 days
Outline: as §1

soybean [11] = assay: Test C preemergence; type: in vivo, Glycine max; conditions: 0 to 100 scale (0 no effect, 100 complete control)
Outline: as §1

corn [12] = assay: Test C postemergence; type: in vivo, Zea mays; conditions: 10 days
Outline: as §1

rice = assay: Test D flooded paddy test; type: in vivo, Oryza sativa; conditions: 250 g ai/ha, applied to paddy water, visual rating after 13 to 14 days, scale 0 to 100 (0 no effect, 100 complete control)
Outline: as §2

ducksalad = assay: Test D flooded paddy test; type: in vivo, Heteranthera limosa; conditions: 250 g ai/ha, applied to paddy water, visual rating after 13 to 14 days, scale 0 to 100 (0 no effect, 100 complete control)
Outline: as §2

soybean [13] = assay: Test C postemergence; type: in vivo, Glycine max; conditions: 10 days
Outline: as §1

ragweed [14] = assay: Test C preemergence; type: in vivo, Ambrosia artemisiifolia; conditions: 0 to 100 scale (0 no effect, 100 complete control)
Outline: as §1

ragweed [15] = assay: Test C postemergence; type: in vivo, Ambrosia artemisiifolia; conditions: 10 days
Outline: as §1

ryegrass, Italian [16] = assay: Test C preemergence; type: in vivo, Lolium multiflorum; conditions: 0 to 100 scale (0 no effect, 100 complete control)
Outline: as §1

blackgrass [17] = assay: Test C preemergence; type: in vivo, Alopecurus myosuroides; conditions: 0 to 100 scale (0 no effect, 100 complete control)
Outline: as §1

corn [18] = assay: Test C preemergence; type: in vivo, Zea mays; conditions: 0 to 100 scale (0 no effect, 100 complete control)
Outline: as §1

horseweed = assay: Test C postemergence; type: in vivo, Erigeron canadensis; conditions: 10 days
Outline: as §1

barnyardgrass [19] = assay: Test C preemergence; type: in vivo, Echinochloa crusgalli; conditions: 0 to 100 scale (0 no effect, 100 complete control)
Outline: as §1

blackgrass [20] = assay: Test C postemergence; type: in vivo, Alopecurus myosuroides; conditions: 10 days
Outline: as §1

kochia [21] = assay: Test C preemergence; type: in vivo, Bassia scoparia; conditions: 0 to 100 scale (0 no effect, 100 complete control)
Outline: as §1

kochia [22] = assay: Test C postemergence; type: in vivo, Bassia scoparia; conditions: 10 days
Outline: as §1

barnyardgrass [23] = assay: Test D flooded paddy test; type: in vivo, Echinochloa crus-galli; conditions: 250 g ai/ha, applied to paddy water, visual rating after 13 to 14 days, scale 0 to 100 (0 no effect, 100 complete control)
Outline: as §2

[24] = Preemergence, 500 g ai/ha, visual rating after 10 days
[25] = Test C, preemergence, 125 g ai/ha
[26] = 125 g ai/ha, postemergence, 0 to 100 scale, 0 no effect, 100 complete control
[27] = Postemergence, 500 g ai/ha, visual 0 to 100 scale (0 no effect, 100 complete control)

SMILES: C[C@H]1CN(C(=O)c2cccc(-n3cnc(C(C)(C)O)n3)c2)c2cccc(Cl)c2O1 [Compound 169]
- Plant response rating, Pigweed, Palmer (pigweed, palmer [1]; [24]): 100
- Pigweed, Palmer plant response rating (pigweed, palmer [1]; [25]): 100
- Plant response rating, Galium (galium; [26]): 100
- Plant response rating, Galium (galium; [27]): 100
- Plant response rating, Oat, Wild (oat, wild [2]; [26]): 80
- Plant response rating, Oat, Wild (oat, wild [2]; [27]): 90
- Plant response rating, Barnyardgrass (barnyardgrass [3]; [26]): 20
- Plant response rating, Barnyardgrass (barnyardgrass [3]; [27]): 70
- Plant response rating, Oat, Wild (oat, wild [4]; [24]): 90
- Oat, Wild plant response rating (oat, wild [4]; [25]): 80
- Plant response rating, Foxtail, Green (green foxtail [5]; [26]): 30
- Plant response rating, Foxtail, Green (green foxtail [5]; [27]): 90
- Plant response rating, Sedge, Umbrella (Flood) (sedge, umbrella): 85
- Plant response rating, Foxtail, Green (green foxtail [6]; [24]): 100
- Foxtail, Green plant response rating (green foxtail [6]; [25]): 100
- Plant response rating, Wheat (wheat [7]; [24]): 90
- Wheat plant response rating (wheat [7]; [25]): 30
- Plant response rating, Pigweed, Palmer (pigweed, palmer [8]; [26]): 70
- Plant response rating, Pigweed, Palmer (pigweed, palmer [8]; [27]): 90
- Plant response rating, Wheat (wheat [9]; [26]): 6
- Plant response rating, Wheat (wheat [9]; [27]): 90
- Plant response rating, Ryegrass, Italian (ryegrass, Italian [10]; [26]): 60
- Plant response rating, Ryegrass, Italian (ryegrass, Italian [10]; [27]): 100
- Plant response rating, Soybean (soybean [11]; [24]): 90
- Soybean plant response rating (soybean [11]; [25]): 90
- Plant response rating, Corn (corn [12]; [26]): 80
- Plant response rating, Corn (corn [12]; [27]): 90
- Plant response rating, Rice (Flood) (rice): 0
- Plant response rating, Ducksalad (Flood) (ducksalad): 90
- Plant response rating, Soybean (soybean [13]; [26]): 100
- Plant response rating, Soybean (soybean [13]; [27]): 100
- Plant response rating, Ragweed (ragweed [14]; [24]): 100
- Ragweed plant response rating (ragweed [14]; [25]): 50
- Plant response rating, Ragweed (ragweed [15]; [26]): 50
- Plant response rating, Ragweed (ragweed [15]; [27]): 90
- Plant response rating, Ryegrass, Italian (ryegrass, Italian [16]; [24]): 100
- Ryegrass, Italian plant response rating (ryegrass, Italian [16]; [25]): 90
- Plant response rating, Blackgrass (blackgrass [17]; [24]): 90
- Blackgrass plant response rating (blackgrass [17]; [25]): 90
- Plant response rating, Corn (corn [18]; [24]): 40
- Corn plant response rating (corn [18]; [25]): 0
- Plant response rating, Horseweed (horseweed; [26]): 0
- Plant response rating, Horseweed (horseweed; [27]): 40
- Barnyardgrass plant response rating (barnyardgrass [19]; 125 g ai/ha, preemergence): 80
- Plant response rating, Barnyardgrass (barnyardgrass [19]; [24]): 100
- Plant response rating, Blackgrass (blackgrass [20]; [26]): 90
- Plant response rating, Blackgrass (blackgrass [20]; [27]): 100
- Plant response rating, Kochia (kochia [21]; [24]): 100
- Kochia plant response rating (kochia [21]; [25]): 100
- Plant response rating, Kochia (kochia [22]; [26]): 90
- Plant response rating, Kochia (kochia [22]; [27]): 90
- Plant response rating, Barnyardgrass (Flood) (barnyardgrass [23]): 0
